Data on five molecules can be found in ChEMBL document CHEMBL2074307, “Characterization of drug transport by the human multidrug resistance protein 3 (ABCC3)” (J Biol Chem, 2001).

In data set [1] the target is Multidrug resistance associated protein (Homo sapiens) (UniProt Q96QA9). Briefly: TP_TRANSPORTER: increase in Etoposide intracellular accumulation (Etoposide: 2 uM, Sulfinpyrazone: 2000 uM) in MRP3-expressing fibroblast from kidney of mdr1a/1b and mrp1 (-/-) mouse. Type of data set: functional, cell-based. The conditions noted are these: mdr1a/1b (-/-) and mrp1 (-/-) fibroblasts.

Data set [2] has the same target. As to the kind of experiment: (§1) TP_TRANSPORTER: uptake in membrane vesicle from MRP3-expressing Sf9 cells. Type of data set: functional, cell membranes.
The target is the same in data set [3]. Briefly: TP_TRANSPORTER: increase in Etoposide intracellular accumulation (Etoposide: 2 uM, Indomethacin: 500 uM) in MRP3-expressing fibroblast from kidney of mdr1a/1b and mrp1 (-/-) mouse. Conditions: mdr1a/1b (-/-) and mrp1 (-/-) fibroblasts. It is filed as functional, cell-based.
For data set [4] the target is unchanged. Briefly: TP_TRANSPORTER: efflux in MRP3-expressing fibroblast from kidney of mdr1a/1b and mrp1 (-/-) mouse. Type of data set: functional, cell-based. The conditions noted are these: mdr1a/1b (-/-) and mrp1 (-/-) fibroblasts.
Substrate in data set [5]: C[C@]12CC[C@@H]3c4ccc(O)cc4CC[C@H]3[C@@H]1CC[C@@H]2O[C@@H]1O[C@H](C(=O)O)[C@@H](O)[C@H](O)[C@H]1O
Described as §1. Type of data set: functional, cell membranes.

Substrate in data set [6]: COc1cc([C@@H]2c3cc4c(cc3[C@@H](O[C@@H]3O[C@@H]5CO[C@@H](C)O[C@H]5[C@H](O)[C@H]3O)[C@H]3COC(=O)[C@H]23)OCO4)cc(OC)c1O[C@@H]1O[C@H](C(=O)O)[C@@H](O)[C@H](O)[C@H]1O
Described as §1. It is filed as functional, cell membranes.

For `O=C1C(CC[S+]([O-])c2ccccc2)C(=O)N(c2ccccc2)N1c1ccccc1` (stereo unspecified), in data set [1], the Activity entry is “inhibitor [18 -> 83 % of control (clone#38), 30 -> 77 % of control (clone#77)]”.
With `N[C@@H](CCC(=O)N[C@@H](CS)C(=O)NCC(=O)O)C(=O)O`, in data set [2], the Activity result is “is not a substrate [-]”.
As to `COc1ccc2c(c1)c(CC(=O)O)c(C)n2C(=O)c1ccc(Cl)cc1`, the Activity entry in data set [3] is “inhibitor [[…] -> […] % of control (clone#38), 30 -> […] % of control (clone#77)]”.
Turning to `COc1cc([C@@H]2c3cc4c(cc3[C@@H](O[C@@H]3O[C@@H]5CO[C@@H](C)O[C@H]5[C@H](O)[C@H]3O)[C@H]3COC(=O)[C@H]23)OCO4)cc(OC)c1O`, the Activity result in data set [4] is “substrate [+]”.

B1: Multidrug resistance associated protein (Homo sapiens), Q96QA9 (protein)
chain: MDALCGSGELGSKFWDSNLSVHTENPDLTPCFQNSLLAWVPCIYLWVALPCYLLYLRHHCRGYIILSHLSKLKMVLGVLLWCVSWADLFYSFHGLVHGRAPAPVFFVTPLVVGVTMLLATLLIQYERLQGVQSSGVLIIFWFLCVVCAIVPFRSKILLAKAEGEISDPFRFTTFYIHFALVLSALILACFREKPPFFSAKNVDPNPYPETSAGFLSRLFFWWFTKMAIYGYRHPLEEKDLWSLKEEDRSQMVVQQLLEAWRKQEKQTARHKASAAPGKNASGEDEVLLGARPRPRKPSFLKALLATFGSSFLISACFKLIQDLLSFINPQLLSILIRFISNPMAPSWWGFLVAGLMFLCSMMQSLILQHYYHYIFVTGVKFRTGIMGVIYRKALVITNSVKRASTVGEIVNLMSVDAQRFMDLAPFLNLLWSAPLQIILAIYFLWQNLGPSVLAGVAFMVLLIPLNGAVAVKMRAFQVKQMKLKDSRIKLMSEILNGIKVLKLYAWEPSFLKQVEGIRQGELQLLRTAAYLHTTTTFTWMCSPFLVTLITLWVYVYVDPNNVLDAEKAFVSVSLFNILRLPLNMLPQLISNLTQASVSLKRIQQFLSQEELDPQSVERKTISPGYAITIHSGTFTWAQDLPPTLHSLDIQVPKGALVAVVGPVGCGKSSLVSALLGEMEKLEGKVHMKGSVAYVPQQAWIQNCTLQENVLFGKALNPKRYQQTLEACALLADLEMLPGGDQTEIGEKGINLSGGQRQRVSLARAVYSDADIFLLDDPLSAVDSHVAKHIFDHVIGPEGVLAGKTRVLVTHGISFLPQTDFIIVLADGQVSEMGPYPALLQRNGSFANFLCNYAPDEDQGHLEDSWTALEGAEDKEALLIEDTLSNHTDLTDNDPVTYVVQKQFMRQLSALSSDGEGQGRPVPRRHLGPSEKVQVTEAKADGALTQEEKAAIGTVELSVFWDYAKAVGLCTTLAICLLYVGQSAAAIGANVWLSAWTNDAMADSRQNNTSLRLGVYAALGILQGFLVMLAAMAMAAGGIQAARVLHQALLHNKIRSPQSFFDTTPSGRILNCFSKDIYVVDEVLAPVILMLLNSFFNAISTLVVIMASTPLFTVVILPLAVLYTLVQRFYAATSRQLKRLESVSRSPIYSHFSETVTGASVIRAYNRSRDFEIISDTKVDANQRSCYPYIISNRWLSIGVEFVGNCVVLFAALFAVIGRSSLNPGLVGLSVSYSLQVTFALNWMIRMMSDLESNIVAVERVKEYSKTETEAPWVVEGSRPPEGWPPRGEVEFRNYSVRYRPGLDLVLRDLSLHVHGGEKVGIVGRTGAGKSSMTLCLFRILEAAKGEIRIDGLNVADIGDPILFSGTLRMNLDPFGSYSEEDIWWALELSHLHTFVSSQPAGLDFQCSEGGENLSVGQRQLVCLARALLRKSRILVLDEATAAIDLETDNLIQATIRTQFDTCTVLTIAHRLNTIMDYTRVLVLDKGVVAEFDSPANLIAARGIFYGMARDAGLA
For B1, the Km came out at 17.7 µM in data set [5] and 11.4 µM in data set [6].

By Km is commonly meant the concentration of substrate that gives half-maximal velocity.
